Test results from patent US6506742B2, “Soluble contraceptive liquid formulation” (Ortho-McNeil Pharmaceutical, Inc., priority 1999, dated 2003).

Experiment: Stability study of oral contraceptive liquid formulation stored at room temperature, amount of contraceptive in solution
Type: physicochemical
Conditions: solubilized according to the process (EtOH/PEG 400/water)
Source text: A formulation as prepared in Examples 1 or 2, as shown in Table 3 were stored in a container at room temperature and tested periodically for the amount of contraceptive in solution. The reported figure of the contraceptives in solution is in percent of label claim.

solubility and stability in water	SMILES
greatly increased	C#C[C@]1(OC(C)=O)CC[C@H]2[C@@H]3CCC4=CC(=NO)CC[C@@H]4[C@H]3CC[C@@]21CC (mixture of isomers) [NGM, Norgestimate]
greatly increased	C#C[C@]1(O)CC[C@H]2[C@@H]3CCc4cc(O)ccc4[C@H]3CC[C@@]21C [EE, ethinyl estradiol]
